The results in this text go back to patent EP4813381A1, “PHARMACEUTICAL USE OF GUAIANE SESQUITERPENE DERIVATIVE” (Nanjing University Of Chinese Medicine, priority 2023, dated 2025).

A short description of data set [1]: Conversion rate of salt-form prodrugs to parent compound in HEPES buffer solution. Type of data set: physicochemical. The conditions noted are these: conversion to Compound 1, HEPES buffer pH 7.4, 37 °C. In a few lines: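 Salt-form prodrug dissolved in water was mixed 1:1 with HEPES buffer pH 7.4 (or mouse serum) and incubated at 37°C. Aliquots were quenched with methanol and centrifuged, and supernatants taken at 1, 2, 4, 8 and 12 h were analysed by HPLC. Conversion was followed by peak areas.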

The test system of data set [2] is MDSCs and T cells. The experiment in a line: T cell proliferation in a co-culture model of MDSCs and T cells (flow cytometry). Type of data set: cell-based, mice. The conditions noted are these: MDSCs treated with 1 µM compound for 12 h, 48 h co-culture with T cells (1:1), compared to the control group. Background: A flow cytometer gives signals particle by particle.

Data set [3] has as its system Hepa1-6 cells. The experiment in a line: Hepa1-6 mouse hepatocellular carcinoma subcutaneous xenograft model. Type of data set: in vivo, C57BL/6 mice. The conditions noted are these: Hepa1-6, oral 40 µmol/kg/d, 2 weeks. Here is the method: Hepa1-6 cells were cultured and expanded in vitro. An appropriate amount of cells in the logarithmic growth phase was resuspended in a mixture of serum-free DMEM medium and Matrigel (1:1). under aseptic conditions to prepare a 2.5×10^6/100 µL cell suspension. A 100 µL aliquot of this suspension was injected subcutaneously into the left forearm axilla of male C57BL/6 mice. […] Daily oral administration was performed for 2 weeks. During the treatment period, mouse body weight and tumor diameter were measured daily. At the end of the experiment, mice were euthanized by cervical dislocation, and tumors were removed for weighing. Tumor volume (TV) was calculated using the formula: TV = 1/2 × a × b^2, where a represents the longest diameter of the tumor and b represents the shortest diameter.

Data set [4] concerns inflammatory cytokines (TNF, IL-6, IL-1). The experiment in a line: LPS mouse sepsis model: Q-PCR of inflammatory factor mRNA in lung, liver and kidney. The data set is classed as in vivo, C57BL/6 mice. The conditions noted are these: sepsis mice. The text has this:
Gently pipette to mix the above reagents. The reaction conditions are as follows:
Detailed information is as follows:

The test system of data set [5] is fibrosis-related factors (Acta2, Col1a1, Tgfb1). The experiment in a line: CCl4 acute liver injury model in mice: Q-PCR of fibrosis-related factors in liver. Type of data set: in vivo, C57BL/6 mice. To be noted: liver mRNA. How it is done: They were acclimated for 7 days before use in experiments. • Experimental Methods: Establishment of Acute Liver Injury Model in Mice and Group-Specific Drug Administration • Mice were randomly assigned to groups. One group was arbitrarily designated as the normal group, while the remaining groups served as model group, Compound 1 group, Hydrochloride 20 group, Fumarate 21 group, and Silibinin group, with 6 mice per group. Except for the normal group receiving 10 mL olive oil/kg via injection, all other mice received 0.5 mL CCl4 + 9.5 mL olive oil/kg body weight via intraperitoneal injection, maintaining a CCl4 to olive oil ratio of 1:19. Starting from day 1 of modeling, Compound 1, Hydrochloride 20, and Fumarate 21 were administered orally for 3 consecutive days. […] The blood was allowed to stand at room temperature for 2 hours, then centrifuged at 3000 rpm for 20 minutes. Serum was aspirated, aliquoted, and stored at -70 °C for future use. After blood collection, euthanize mice by cervical dislocation. Perform laparotomy to remove the liver. Rinse twice with pre-chilled PBS. Excise the left hepatic lobe tissue. […] Store remaining tissue at -70 °C for future use. • Serum AST and ALT Assay: Use 10 µL of each sample for testing. Determine mouse serum AST and ALT levels according to the operating manual. Measure absorbance at 510 nm using an enzyme-linked immunosorbent assay (ELISA) reader. Calculate sample concentration (U/L) based on the standard curve.
Q-PCR Analysis: Tissue total RNA extraction, cDNA synthesis, and PCR amplification methods are identical to Example 4. Additional primer information is as follows:
Data Statistics: All data are expressed as means ± standard error of the mean (S.E.M.). Differences were analyzed for significance using analysis of variance (ANOVA). For groups showing significant differences in ANOVA, one-way ANOVA followed by Dunnett's test was performed to compare intergroup differences.

In data set [6] the test system is Rat mast cells (RBL-2H3). The experiment in a line: Mast cell degranulation test (anti-DNP IgE / DNP-HSA). To be noted: RBL-2H3, IgE+HSA, 4 h. The data set is classed as cell-based. Here is the method: Rat mast cells (RBL-2H3) were cultured routinely in DMEM medium containing 10% FBS within a 5% CO2 incubator. Upon reaching 70-80% confluence, cells were uniformly seeded at a density of 1 × 10^5 cells/mL into 6-well plates (2 mL per well), divided into the following groups: Normal, IgE+HSA, Compound 1 (0.01, 0.1, 1, 10 µM). Mast cells were sensitized with 500 µg/L anti-DNP IgE for 12 h. washed with PBS, and cultured for an additional 12 h with 100 µg/L DNP-HSA. Compound 1 at the specified concentrations was then added. […]

Where [7] appears, read: kidney mRNA (relative, Gapdh), oral gavage 0.1 mg/kg.
Setting [8] is: kidney mRNA (relative, Gapdh), oral gavage 1 mg/kg.
Setting [9] is: liver mRNA (relative, Gapdh), oral gavage 0.1 mg/kg.
Where [10] appears, read: liver mRNA (relative, Gapdh), oral gavage 1 mg/kg.
[11] abbreviates: lung mRNA (relative, Gapdh), oral gavage 0.1 mg/kg.
[12] abbreviates: lung mRNA (relative, Gapdh), oral gavage 1 mg/kg.

On to `CN(C)C[C@@H]1C(=O)O[C@H]2[C@H]1CC[C@@]1(C)C[C@]13CC[C@@](C)(O)[C@H]23` [compound 20], for which the Release rate in data set [1] (1 h) is listed as 6.2%; in data set [1] (2 h), 13.8%; in data set [1] (4 h) it was 21.7%; in data set [1] (8 h), 44.3%; in data set [1] (12 h), 59.1%. Further, in data set [2], the “T-cell proliferation rate (%)” value was “+ (T-cell proliferation rate within the 0-20% range compared to the control group)”. Further, the “Tumor Inhibition Rate (%)” value in data set [3] was determined as 96.78%. The “Tumor weight” value in data set [3] came out at 0.03 ± 0.02 g.
For the compound `C=C1C(=O)O[C@@H]2[C@@H]3[C@]4(CC[C@@]3(C)O)C[C@]4(C)CC[C@@H]12` [compound 1], the Il1 turned out to be 7.01±0.33 in data set [4] (setting [7]); 3.05±0.58 in data set [4] (setting [8]); 11.32±2.66 in data set [4] (setting [9]); 4.84±0.60 in data set [4] (setting [10]); 15.29±0.88 in data set [4] (setting [11]); 7.89±1.44 in data set [4] (setting [12]). Further, the Il6 in data set [4] (setting [7]) came to 7.55±2.08; in data set [4] (setting [8]), 3.11±0.29; in data set [4] (setting [9]) it was 8.50±3.02; in data set [4] (setting [10]), 5.10±0.82; in data set [4] (setting [11]), 19.17±0.51; in data set [4] (setting [12]), 11.67±1.84. Besides, the Tnf in data set [4] (setting [7]) worked out at 7.17±1.22; in data set [4] (setting [8]), 6.59±0.18; in data set [4] (setting [9]), 8.68 ± 2.12; in data set [4] (setting [10]) it was 7.01±0.92; in data set [4] (setting [11]) it was 8.58 ± 0.85; in data set [4] (setting [12]), 7.99±1.36. In addition, the Acta2 in data set [5] (oral 0.1 mg/kg) turned out to be 3.82±0.88; in data set [5] (oral 1 mg/kg), 2.34±0.16. The Col1a1 came out at 2.28±0.80 in data set [5] (oral 0.1 mg/kg) and 1.40±0.31 in data set [5] (oral 1 mg/kg). The Tgfb1 is given as 1.39±0.58 in data set [5] (oral 0.1 mg/kg) and 1.08±0.21 in data set [5] (oral 1 mg/kg). The β-Glucosaminidase in data set [6] (0.01 µM) worked out at 13.24 ± 0.08 ng/mL; in data set [6] (0.1 µM) it was 12.08 ± 0.12 ng/mL; in data set [6] (1 µM) it was 10.65 ± 0.05 ng/mL; in data set [6] (10 µM), 7.13 ± 0.07 ng/mL.
